Test results published in patent US20220225597A1, “MOUSE MODEL FOR ASSESSING TOXICITIES ASSOCIATED WITH IMMUNOTHERAPIES” (Juno Therapeutics, Inc., priority 2017, published 2022).

Assays:
[1] = system: A20 cells; experiment: Tumor burden by histology; type: in vivo, mouse; conditions: mice having received A20 cells i.v.
Procedure: To examine the effects of tumor burden on the toxicity following B cell aplasia in mice, BALB/c mice were injected with CD19-expressing A20 cells prior to treatment with CPA and mouse anti-CD19 CAR−T cells. A20 cells are a cell line of B lymphocytes derived from a spontaneous reticulum cell neoplasm in a BALB/cAnN mouse. As the cell line was originally derived from cells of an individual of a BALB/c mouse substrain, the cells are syngenic to the BALB/c mice and can be administered into an immunocompetent BALB/c mouse without triggering an immune response.
BALB/c mice were injected intravenously with A20 cells. […] Table E3 sets forth the treatment groups.
Tumor burden also was assessed by histology in treated mice.

[2] = system: BALB/c mice; experiment: Serum chemistry profiles; conditions: various time points following cell treatment
Procedure: The serum was stored at −20° C. prior to analysis for complete serum chemistry panels, including for levels of serum glucose, albumin, albumin to globulin (A/G) ratio, globulin, total protein, calcium, phosphorus, ALT, AST, and BUN enzymes.

[3] = system: BALB/c mice; type: in vivo, mouse
Procedure: Various parameters relating to toxicity were assessed in BALB/c mice produced to develop B cell aplasia following administration of an immunotherapy involving anti-CD19 CAR T cells substantially as described in Example 2.
At 24, 48, and 72 hours after infusion with cell compositions, the three healthiest mice from each group were anesthetized, transcardially perfused with phosphate buffered saline (PBS) to flush brain blood vessels, and sacrificed. Blood and tissue samples (spleen, kidney, liver and brain) were collected for analysis of immune cell populations, gene expression, and blood chemistry. The blood and tissue samples were either processed for flow cytometry or were snap-frozen for RNA sequencing (RNA-Seq) analysis. For flow cytometry, tissue samples were digested and cell suspensions were layered over a density gradient to enrich immune cell populations.

[4] = system: BALB/c mice; experiment: Survival in mouse model of toxicity (CPA, then muCAR-T or mock cells); type: in vivo; conditions: 250 mg/kg CPA alone i.p.; tumor-free BALB/c mice
Procedure: (§1) A single dose of either 100 mg/kg or 250 mg/kg cyclophosphamide (CPA) was injected into naïve BALB/c mice (tumor-free) by intraperitoneal (i.p.) injection. Twenty-four hours later, about 5×10^6 mouse CAR-expressing T cells or mock (control) cells, generated as described in Example 1, were transferred into mice by intravenous injection into the lateral tail vein. As a control, mice were injected with CPA alone or were left untreated. Table E1 sets forth the treatment groups.

[5] = system: BALB/c mice; type: in vivo, mouse; remark: listed apart in the source
Procedure: as §1
Blood samples were collected from treated mice at days 3, 10, 17, 31 and, in some mice at day 43, following cell infusion. The pharmacokinetics (PK) in the blood of administered cells was assessed by detection of the surrogate marker Thy 1.1. The number of circulating B cells, T cells and CD11b+ cells in the blood at the time points following treatment also was assessed.

In the case of `O=P1(N(CCCl)CCCl)NCCCO1` (centres unmarked) [CPA, cyclophosphamide], the “A20 tumor masses in liver and spleen tissues” value [1] is reported as “observed in some”, the “serum Albumin to Globulin ratio (A/G ratio)” value [2] is reported as “significantly reduced” and the “circulating CD45+ live cells, CD11b+ cells, endogenous T cells and endogenous B cells in blood” value ([3]; 250 mg/kg CPA pre-conditioning, continued to drop at least for 72 hours) is reported as “depletion”. For the same molecule, the “immune cells in brain tissue, including endogenous T cells and endogenous B cells” value ([3]; CPA pre-conditioning) was “depleted”, the “immune cells (endogenous T cells, B cells, CD45+ cells, CD11b+ cells) in spleen, kidney and liver” value ([3]; treatment with CPA) was “depletion” and the Survival [4] was 100%. The “levels of circulating B cells” value ([5]; 250 mg/kg CPA than 100 mg/kg CPA) was “reduced levels of circulating B cells to a greater degree” and the “circulating B cells, T cells, and CD11b+ cells” value ([5]; 100 or 250 mg/kg CPA i.p., blood) was “depleted”.
